Test results taken from PubChem BioAssay AID218 (DTP/NCI, 2004).

Test system: C57BL/6 mice, Adenocarcinoma 755 sc, tumor weight T/C
Assay: NCI In Vivo Anticancer Drug Screen. Data for tumor model Adenocarcinoma 755 (subcutaneous) in C57BL/6 mice
Settings: endpoint: mean tumor weight, higher = larger tumour
Procedure: The antitumor activity of compounds was measured in mice bearing transplantable tumors. Survival or tumor size were measured and the results are expressed as the measurement made in the treated group (T) divided by the measurement made in the vehicle treated control group (C). The tumor model used in this assay is Adenocarcinoma 755 (subcutaneous) in C57BL/6 mice

[1] = dose: 5.0 mg/kg/injection, schedule: Q01DX011 (ip), vehicle: carboxymethylcellulose (CMC)
[2] = dose: 10.0 mg/kg/injection, schedule: Q01DX011 (ip), vehicle: carboxymethylcellulose (CMC)
[3] = dose: 20.0 mg/kg/injection, schedule: Q01DX011 (ip), vehicle: carboxymethylcellulose (CMC)
[4] = dose: 25.0 mg/kg/injection, schedule: Q01DX011 (ip), vehicle: carboxymethylcellulose (CMC)
[5] = dose: 100.0 mg/kg/injection, schedule: Q01DX011 (ip), vehicle: carboxymethylcellulose (CMC)

With `N/C(=N/N=C/c1ccccc1[N+](=O)[O-])N[N+](=O)[O-]` as the molecule, how does the T/C (dose: 150.0 mg/kg/injection, schedule: Q02DX006 (ip), vehicle: saline) read?
The T/C was 95 % of control.

And the T/C (dose: 200.0 mg/kg/injection, schedule: Q02DX006 (ip), vehicle: saline)?
Its T/C is 76 % of control.

What does the source list for `NC(=S)N/N=C/c1ccc([N+](=O)[O-])cc1`?
T/C (dose: 75.0 mg/kg/injection, schedule: Q02DX006 (ip), vehicle: saline): 22 % of control; T/C (dose: 100.0 mg/kg/injection, schedule: Q02DX006 (ip), vehicle: saline): 31 % of control

How did the T/C (dose: 2.5 mg/kg/injection, schedule: Q01DX011 (ip), vehicle: carboxymethylcellulose (CMC)) turn out when `CS(=O)(=O)OCCCCOS(C)(=O)=O` was run?
The T/C was 86 % of control.

And the T/C [1]?
The T/C was 57 % of control.

What about the T/C [2] of the same molecule?
The T/C was 69 % of control.

And the T/C (dose: 10.0 mg/kg/injection, schedule: Q02DX006 (ip), vehicle: other)?
Its T/C is 59 % of control.

What about the T/C (dose: 12.5 mg/kg/injection, schedule: Q02DX006 (ip), vehicle: other) of the same molecule?
Its T/C is 51 % of control.

What about the T/C (dose: 15.0 mg/kg/injection, schedule: Q01DX011 (ip), vehicle: carboxymethylcellulose (CMC)) of the same molecule?
Its T/C is 56 % of control.

What about the T/C (dose: 15.0 mg/kg/injection, schedule: Q02DX006 (ip), vehicle: other) of the same molecule?
The T/C was 76 % of control.

And the T/C [3]?
The T/C was 49 % of control.

And the T/C [4]?
The T/C was 26 % of control.

Which T/C (dose: 50.0 mg/kg/injection, schedule: Q01DX011 (ip), vehicle: saline) does the source give for `CCCCCCCCCNc1ncnc2[nH]ncc12` here?
The T/C was 51 % of control.

What about the T/C (dose: 100.0 mg/kg/injection, schedule: Q01DX011 (ip), vehicle: saline) of the same molecule?
Its T/C is 64 % of control.

For `O=c1cn[nH]c(=O)[nH]1`, which T/C [5] is on record?
Its T/C is 159 % of control.

What about the T/C (dose: 200.0 mg/kg/injection, schedule: Q01DX011 (ip), vehicle: carboxymethylcellulose (CMC)) of the same molecule?
The T/C was 110 % of control.

With `Cn1cnc2ncnc(Cl)c21` as the molecule, how does the T/C (dose: 75.0 mg/kg/injection, schedule: Q01DX011 (ip), vehicle: carboxymethylcellulose (CMC)) read?
Its T/C is 183 % of control.

Which results are given for `CS(=O)(=O)OCCCCCCCCCOS(C)(=O)=O`?
T/C (dose: 0.25 mg/kg/injection, schedule: Q01DX011 (ip), vehicle: carboxymethylcellulose (CMC)): 64 % of control; T/C (dose: 0.5 mg/kg/injection, schedule: Q01DX011 (ip), vehicle: carboxymethylcellulose (CMC)): 93 % of control; T/C (dose: 1.0 mg/kg/injection, schedule: Q01DX011 (ip), vehicle: carboxymethylcellulose (CMC)): 162 % of control; T/C (dose: 2.0 mg/kg/injection, schedule: Q01DX011 (ip), vehicle: carboxymethylcellulose (CMC)): 95 % of control; T/C (dose: 4.0 mg/kg/injection, schedule: Q01DX011 (ip), vehicle: carboxymethylcellulose (CMC)): 84 % of control

Which results are given for `CC(C)C(=O)OCC1OC(n2cnc3c(=S)nc(N)[nH]c32)C(OC(=O)C(C)C)C1OC(=O)C(C)C` (stereo unspecified)?
T/C (dose: 1.5 mg/kg/injection, schedule: Q01DX011 (ip), vehicle: saline): 68 % of control; T/C (dose: 3.0 mg/kg/injection, schedule: Q01DX011 (ip), vehicle: saline): 25 % of control

How did the T/C [1] turn out when `CCCCNc1nc(N)nc2nc[nH]c12` was run?
The T/C was 106 % of control.

And the T/C [2]?
The T/C was 104 % of control.

What about the T/C [4] of the same molecule?
The T/C was 123 % of control.

And the T/C (dose: 50.0 mg/kg/injection, schedule: Q01DX011 (ip), vehicle: carboxymethylcellulose (CMC))?
Its T/C is 78 % of control.

And the T/C [5]?
Its T/C is 72 % of control.

Which T/C (dose: 37.0 mg/kg/injection, schedule: Q01DX011 (ip), vehicle: saline) does the source give for `CCCCNc1nc(N(C)C)nc2nc[nH]c12` here?
The T/C was 80 % of control.

And the T/C (dose: 75.0 mg/kg/injection, schedule: Q01DX011 (ip), vehicle: saline)?
The T/C was 29 % of control.

What about the T/C (dose: 90.0 mg/kg/injection, schedule: Q01DX011 (ip), vehicle: saline) of the same molecule?
Its T/C is 56 % of control.

What about the T/C (dose: 125.0 mg/kg/injection, schedule: Q01DX011 (ip), vehicle: saline) of the same molecule?
The T/C was 47 % of control.

What does the source list for `O=C(c1ccc(C(=O)N2CC2)cc1)N1CC1`?
T/C (dose: 12.5 mg/kg/injection, schedule: Q01DX011 (ip), vehicle: methylcellulose (MC)): 60 % of control; T/C (dose: 25.0 mg/kg/injection, schedule: Q01DX011 (ip), vehicle: methylcellulose (MC)): 53 % of control

Which T/C [2] does the source give for `O=c1[nH]cc(F)c(=O)[nH]1` here?
The T/C was 7 % of control.

And the T/C [3]?
The T/C was 61 % of control.

What does the source list for `c1ccc(CNc2ncnc3[nH]ncc23)cc1`?
T/C (dose: 25.0 mg/kg/injection, schedule: Q01DX011 (ip), vehicle: saline): 27 % of control; T/C (dose: 30.0 mg/kg/injection, schedule: Q01DX011 (ip), vehicle: saline): 25 % of control; T/C (dose: 40.0 mg/kg/injection, schedule: Q01DX011 (ip), vehicle: saline): 4 % of control

Which T/C (dose: 35.0 mg/kg/injection, schedule: Q02DX006 (ip), vehicle: other) does the source give for `NC(=S)N/N=C/c1ccc(N)cc1` here?
Its T/C is 86 % of control.

What about the T/C (dose: 40.0 mg/kg/injection, schedule: Q02DX006 (ip), vehicle: other) of the same molecule?
The T/C was 85 % of control.

And the T/C (dose: 50.0 mg/kg/injection, schedule: Q02DX006 (ip), vehicle: other)?
Its T/C is 87 % of control.

What about the T/C (dose: 60.0 mg/kg/injection, schedule: Q02DX006 (ip), vehicle: other) of the same molecule?
The T/C was 70 % of control.

And the T/C (dose: 70.0 mg/kg/injection, schedule: Q02DX006 (ip), vehicle: other)?
Its T/C is 77 % of control.
